This assay has as its target Estrogen receptor (Rattus norvegicus) (UniProt P06211+Q62986). Nature of the assay: Displacement of [3H]estradiol from rat uterine estrogen receptor. The class given is protein assay. On the technique in general: Displacement assays read how much labelled ligand stays bound in the presence of the test substance.

`Cc1ccccc1C1=C(c2ccc(O)cc2)c2ccc(O)cc2C1`: the RBA stood at 23%.

The molecule `Cc1ccccc1C1=C(c2ccccc2)c2ccc(O)cc2C1` returned an RBA of 100%. The value for `Oc1ccc2c(c1)CC(c1ccccc1F)=C2c1ccccc1` was 49%; that for `Cc1ccc(C2=C(c3ccccc3)Cc3cc(O)ccc32)cc1` was 1.7%.

`Oc1ccc(C2=C(c3ccccc3)Cc3cc(O)ccc32)c(F)c1` showed an RBA of 9.6%. With `Oc1ccc2c(c1)CC(c1ccccc1)=C2c1ccccc1F` the figure was 12%.

`Cc1ccccc1C1=C(c2ccccc2)Cc2cc(O)ccc21`: the RBA was determined as 11%.

(Values after ChEMBL document CHEMBL1125126, “Torsionally and hydrophobically modified 2,3-diarylindenes as estrogen receptor ligands” (J Med Chem, 1990).)
